Measured values published in PubChem BioAssay AID2060492 (Molecular Pharmacology Branch, DTP, NCI, 2025).

Tested on: 695427-040-R-J1-PDC complex spheroids, viability percent T/C
Assay: Anticancer human tumor 695427-040-R-J1-PDC patient-derived colon adenocarcinoma cell line growth inhibition [GQUAD]
Conditions: for IC50: curve of first compound; for viability, T/C: stronger effect = lower value
Summary of the method: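 Multi-cell-type spheroids of tumor cells with HUVEC and mesenchymal stem cells, treated with drug combinations. Concentrations descend in half-log steps from near clinical Cmax, or from 10 microM where Cmax is unknown; viability read-out.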

[1] = second compound 0.0316 µM, first compound 0.0316 µM
[2] = second compound 0.0316 µM, first compound 0.1 µM
[3] = second compound 0.0316 µM, first compound 0.316 µM
[4] = second compound 0.0316 µM, first compound 1 µM
[5] = second compound 0.0316 µM, first compound 3.16 µM
[6] = second compound 0.0316 µM, first compound 10 µM
[7] = second compound 0.1 µM, first compound 0.0316 µM
[8] = second compound 0.1 µM, first compound 0.1 µM
[9] = second compound 0.1 µM, first compound 0.316 µM
[10] = second compound 0.1 µM, first compound 1 µM
[11] = second compound 0.1 µM, first compound 3.16 µM
[12] = second compound 0.1 µM, first compound 10 µM
[13] = second compound 0.316 µM, first compound 0.0316 µM
[14] = second compound 0.316 µM, first compound 0.1 µM
[15] = second compound 0.316 µM, first compound 0.316 µM
[16] = second compound 0.316 µM, first compound 1 µM
[17] = second compound 0.316 µM, first compound 3.16 µM
[18] = second compound 0.316 µM, first compound 10 µM
[19] = second compound 1 µM, first compound 0.0316 µM
[20] = second compound 1 µM, first compound 0.1 µM
[21] = second compound 1 µM, first compound 0.316 µM
[22] = second compound 1 µM, first compound 1 µM
[23] = second compound 1 µM, first compound 3.16 µM
[24] = second compound 1 µM, first compound 10 µM
[25] = second compound 3.16 µM, first compound 0.0316 µM
[26] = second compound 3.16 µM, first compound 0.1 µM
[27] = second compound 3.16 µM, first compound 0.316 µM
[28] = second compound 3.16 µM, first compound 1 µM
[29] = second compound 3.16 µM, first compound 3.16 µM
[30] = second compound 3.16 µM, first compound 10 µM
[31] = second compound 10 µM, first compound 0.0316 µM
[32] = second compound 10 µM, first compound 0.1 µM
[33] = second compound 10 µM, first compound 0.316 µM
[34] = second compound 10 µM, first compound 1 µM
[35] = second compound 10 µM, first compound 3.16 µM
[36] = second compound 10 µM, first compound 10 µM
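Note: spheroids exposed to compounds for seven days before readout.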

**Q.** What does the source list for `C#Cc1c(F)ccc2cc(O)cc(-c3ncc4c(N5CC6CCC(C5)N6)nc(OCC56CCCN5CC(F)C6)nc4c3F)c12` (stereo unspecified) + Cc1[nH]c2ccc(F)cc2c1-c1nc2c3cccnc3c3ncccc3c2[nH]1?
**A.** IC50 (second compound 0.0316 µM): 1.58 µM; IC50 (second compound 0.1 µM): 1.28 µM; IC50 (second compound 0.316 µM): 1.01 µM; IC50 (second compound 1 µM): 0.932 µM; IC50 (second compound 3.16 µM): 0.444 µM; IC50 (second compound 10 µM): 0.438 µM; viability, T/C [1]: 105%; viability, T/C [2]: 95.3%; viability, T/C [3]: 99.3%; viability, T/C [4]: 75.5%; viability, T/C [5]: 10.3%; viability, T/C [6]: 11.7%; viability, T/C [7]: 117%; viability, T/C [8]: 91.6%; viability, T/C [9]: 93.7%; viability, T/C [10]: 62.3%; viability, T/C [11]: 7.36%; viability, T/C [12]: 8.21%; viability, T/C [13]: 102%; viability, T/C [14]: 96.7%; viability, T/C [15]: 80.4%; viability, T/C [16]: 55.7%; viability, T/C [17]: 5.93%; viability, T/C [18]: 5.99%; viability, T/C [19]: 86.8%; viability, T/C [20]: 84.5%; viability, T/C [21]: 82.5%; viability, T/C [22]: 48%; viability, T/C [23]: 3.1%; viability, T/C [24]: 2.8%; viability, T/C [25]: 73.6%; viability, T/C [26]: 73.2%; viability, T/C [27]: 62.5%; viability, T/C [28]: 19.9%; viability, T/C [29]: 1.77%; viability, T/C [30]: 1.26%; viability, T/C [31]: 70.8%; viability, T/C [32]: 60.4%; viability, T/C [33]: 61.4%; viability, T/C [34]: 21.9%; viability, T/C [35]: 1.1%; viability, T/C [36]: 1.13%

**Q.** With `C=CCn1c(=O)c2cnc(Nc3ccc(N4CCN(C)CC4)cc3)nc2n1-c1cccc(C(C)(C)O)n1` + Cc1[nH]c2ccc(F)cc2c1-c1nc2c3cccnc3c3ncccc3c2[nH]1 as the molecule, how does the IC50 (second compound 0.0316 µM) read?
**A.** 9.44 µM

**Q.** And the IC50 (second compound 0.1 µM)?
**A.** 6.67 µM

**Q.** And the IC50 (second compound 0.316 µM)?
**A.** 6.48 µM

**Q.** What about the IC50 (second compound 1 µM) of the same molecule?
**A.** 5.42 µM

**Q.** And the IC50 (second compound 3.16 µM)?
**A.** 4.56 µM

**Q.** And the IC50 (second compound 10 µM)?
**A.** 4.4 µM

**Q.** And the viability, T/C [1]?
**A.** 102%

**Q.** And the viability, T/C [2]?
**A.** 104%

**Q.** And the viability, T/C [3]?
**A.** 94.3%

**Q.** And the viability, T/C [4]?
**A.** 108%

**Q.** What about the viability, T/C [5] of the same molecule?
**A.** 105%

**Q.** What about the viability, T/C [6] of the same molecule?
**A.** 47.1%

**Q.** And the viability, T/C [7]?
**A.** 114%

**Q.** And the viability, T/C [8]?
**A.** 99.8%

**Q.** What about the viability, T/C [9] of the same molecule?
**A.** 103%

**Q.** And the viability, T/C [10]?
**A.** 113%

**Q.** And the viability, T/C [11]?
**A.** 99.3%

**Q.** And the viability, T/C [12]?
**A.** 23%

**Q.** What about the viability, T/C [13] of the same molecule?
**A.** 105%

**Q.** And the viability, T/C [14]?
**A.** 94.1%

**Q.** And the viability, T/C [15]?
**A.** 95.6%

**Q.** What about the viability, T/C [16] of the same molecule?
**A.** 97.2%

**Q.** And the viability, T/C [17]?
**A.** 95.6%

**Q.** And the viability, T/C [18]?
**A.** 22.4%

**Q.** What about the viability, T/C [19] of the same molecule?
**A.** 81.6%

**Q.** What about the viability, T/C [20] of the same molecule?
**A.** 88.2%

**Q.** What about the viability, T/C [21] of the same molecule?
**A.** 93.1%

**Q.** And the viability, T/C [22]?
**A.** 89.3%

**Q.** And the viability, T/C [23]?
**A.** 79.8%

**Q.** What about the viability, T/C [24] of the same molecule?
**A.** 16%

**Q.** What about the viability, T/C [25] of the same molecule?
**A.** 72%

**Q.** And the viability, T/C [26]?
**A.** 72%

**Q.** What about the viability, T/C [27] of the same molecule?
**A.** 70.3%

**Q.** And the viability, T/C [28]?
**A.** 64.8%

**Q.** And the viability, T/C [29]?
**A.** 70.7%

**Q.** What about the viability, T/C [30] of the same molecule?
**A.** 7.06%

**Q.** And the viability, T/C [31]?
**A.** 75.4%

**Q.** And the viability, T/C [32]?
**A.** 76.8%

**Q.** What about the viability, T/C [33] of the same molecule?
**A.** 71.5%

**Q.** What about the viability, T/C [34] of the same molecule?
**A.** 71.5%

**Q.** What about the viability, T/C [35] of the same molecule?
**A.** 67.8%

**Q.** What about the viability, T/C [36] of the same molecule?
**A.** 6.01%

**Q.** With `CCCS(=O)(=O)Nc1ccc(F)c(C(=O)c2c[nH]c3ncc(-c4ccc(Cl)cc4)cc23)c1F` + Cc1[nH]c2ccc(F)cc2c1-c1nc2c3cccnc3c3ncccc3c2[nH]1 as the molecule, how does the IC50 (second compound 0.0316 µM) read?
**A.** > 10 µM

**Q.** And the IC50 (second compound 0.1 µM)?
**A.** > 10 µM

**Q.** And the IC50 (second compound 0.316 µM)?
**A.** > 10 µM

**Q.** What about the IC50 (second compound 1 µM) of the same molecule?
**A.** 9.22 µM

**Q.** And the IC50 (second compound 3.16 µM)?
**A.** 5.02 µM

**Q.** What about the IC50 (second compound 10 µM) of the same molecule?
**A.** 2.51 µM

**Q.** What about the viability, T/C [1] of the same molecule?
**A.** 97.4%

**Q.** And the viability, T/C [2]?
**A.** 89.3%

**Q.** And the viability, T/C [3]?
**A.** 92.5%

**Q.** What about the viability, T/C [4] of the same molecule?
**A.** 84.3%

**Q.** And the viability, T/C [5]?
**A.** 70.9%

**Q.** What about the viability, T/C [6] of the same molecule?
**A.** 60.1%

**Q.** And the viability, T/C [7]?
**A.** 109%

**Q.** What about the viability, T/C [8] of the same molecule?
**A.** 99.2%

**Q.** What about the viability, T/C [9] of the same molecule?
**A.** 86%

**Q.** And the viability, T/C [10]?
**A.** 77.6%

**Q.** And the viability, T/C [11]?
**A.** 70.9%

**Q.** What about the viability, T/C [12] of the same molecule?
**A.** 53.8%

**Q.** And the viability, T/C [13]?
**A.** 107%

**Q.** What about the viability, T/C [14] of the same molecule?
**A.** 93.9%

**Q.** What about the viability, T/C [15] of the same molecule?
**A.** 77.7%

**Q.** What about the viability, T/C [16] of the same molecule?
**A.** 73.4%

**Q.** What about the viability, T/C [17] of the same molecule?
**A.** 66.6%

**Q.** And the viability, T/C [18]?
**A.** 54.7%

**Q.** And the viability, T/C [19]?
**A.** 93.9%

**Q.** And the viability, T/C [20]?
**A.** 89.8%

**Q.** And the viability, T/C [21]?
**A.** 85.3%

**Q.** What about the viability, T/C [22] of the same molecule?
**A.** 76.2%

**Q.** What about the viability, T/C [23] of the same molecule?
**A.** 63.9%

**Q.** And the viability, T/C [24]?
**A.** 49%

**Q.** What about the viability, T/C [25] of the same molecule?
**A.** 84%

**Q.** What about the viability, T/C [26] of the same molecule?
**A.** 86.2%

**Q.** And the viability, T/C [27]?
**A.** 72%

**Q.** And the viability, T/C [28]?
**A.** 71.2%

**Q.** And the viability, T/C [29]?
**A.** 56.5%

**Q.** And the viability, T/C [30]?
**A.** 39.8%

**Q.** What about the viability, T/C [31] of the same molecule?
**A.** 69.2%

**Q.** What about the viability, T/C [32] of the same molecule?
**A.** 72.6%

**Q.** And the viability, T/C [33]?
**A.** 63.3%

**Q.** What about the viability, T/C [34] of the same molecule?
**A.** 66%

**Q.** What about the viability, T/C [35] of the same molecule?
**A.** 46%

**Q.** And the viability, T/C [36]?
**A.** 37.1%
